Measured values published in patent publication US20250136581A1, “SUBSTITUTED TRIAZOLE DERIVATIVE, PREPARATION METHOD THEREFOR, PHARMACEUTICAL COMPOSITION THEREOF, AND USE THEREOF” (SHANGHAI SIMR BIOTECHNOLOGY CO., LTD., priority 2021, published 2025).

Biological target: human α5β3γ2 receptors (α5-GABAA receptor) (Homo sapiens (Human), UniProt P18507+P31644)
Assay: 3H-flunitrazepam competition binding, human α5β3γ2 GABAA receptor
Details: HEK293 cell membranes, 1 nM 3H-flunitrazepam; read-out: α5-GABAAR Ki
Method in brief: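 HEK293 membranes stably expressing each human receptor subtype ([…]) competed against 1 nM 3H-flunitrazepam in Tris buffer, 1 h at room temperature; flumazenil defined the low-signal control. Eight-point 4-fold test-compound dilutions; GF/C filtration and scintillation counting gave IC50 by curve fitting, converted to Ki.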

Compound | Ki
O=C1NCCN2CCN(c3ccc(OCc4c(C(F)F)nnn4-c4ccc(C(F)F)cc4)nn3)C[C@@H]12 [Example 184, (S)-8-(6-((4-(Difluoromethyl)-1-(4-(difluoromethyl)phenyl)-1H-1,2,3-triazol-5-yl)methoxy)pyridazin-3-yl)hexahydro-2H-pyrazino[1,2-a]pyrazin-1(6H)-one] | 2.53 nM
O=C1CN(c2ccc(OCc3c(C(F)F)nnn3-c3ccc(C(F)F)cc3)nn2)CCN1 [Example 185, 4-(6-((4-(Difluoromethyl)-1-(4-(difluoromethyl)phenyl)-1H-1,2,3-triazol-5-yl)methoxy)pyridazin-3-yl)piperazin-2-one] | 0.96 nM
O=C1CN(c2ccc(OCc3c(CC4CC4)nnn3-c3ccc(C(F)F)cc3)nn2)CCN1 [Example 186] | 4.62 nM
O=C1NCCN2CCN(c3ccc(OCc4c(CC5CC5)nnn4-c4ccc(C(F)F)cc4)nn3)C[C@@H]12 [Example 187, (S)-8-(6-((4-(Cyclopropylmethyl)-1-(4-(difluoromethyl)phenyl)-1H-1,2,3-triazol-5-yl)methoxy)pyridazin-3-yl)hexahydro-2H-pyrazino[1,2-a]pyrazin-1(6H)-one] | 11.1 nM
Cc1cc(-c2nnn(-c3ccc(C(F)F)cc3)c2COc2ccc(N3CCNC(=O)C3)nn2)no1 [Example 188, 4-(6-((1-(4-(Difluoromethyl)phenyl)-4-(5-methylisoxazol-3-yl)-1H-1,2,3-triazol-5-yl)methoxy)pyridazin-3-yl)piperazin-2-one] | 40.6 nM
O=C1CN(c2ccc(OCc3c(Cl)nnn3-c3ccc(Cl)cc3)nn2)CCN1 [Example 190, 4-(6-((4-Chloro-1-(4-chlorophenyl)-1H-1,2,3-triazol-5-yl)methoxy)pyridazin-3-yl)piperazin-2-one] | 1.96 nM
O=C1CN(c2ccc(OCc3c(C(F)(F)F)nnn3-c3ccc(C(F)F)cc3)nn2)CCN1 [Example 191, 4-(6-((1-(4-(Difluoromethyl)phenyl)-4-(trifluoromethyl)-1H-1,2,3-triazol-5-yl)methoxy)pyridazin-3-yl)piperazin-2-one] | 3.27 nM
Cc1nnn(-c2ccc(C(F)F)cc2)c1COc1ccc(N2CCN3c4ccncc4NC(=O)[C@@H]3C2)nn1 [Example 192, (S)-8-(6-((1-(4-(Difluoromethyl)phenyl)-4-methyl-1H-1,2,3-triazol-5-yl)methoxy)pyridazin-3-yl)-7,8,9,10-tetrahydro-5H-pyrazino[1,2-a]pyrido[3,4-e]pyrazin-6(6aH)-one] | 17.4 nM

Next, values leading:

Ki | Compound
1.45 nM | Cc1nnn(-c2ccc(C(F)F)cc2)c1COc1ccc(N2CCN3c4cccnc4NC(=O)[C@@H]3C2)nn1 [Example 193, (S)-3-(6-((1-(4-(difluoromethyl)phenyl)-4-methyl-1H-1,2,3-triazol-5-yl)methoxy)pyridazin-3-yl)-2,3,4,4a-tetrahydro-1H-pyrazino[1,2-a]pyrido[2,3-e]pyrazin-5(6H)-one]
0.8 nM | Cc1nnn(-c2ccc(C(F)F)cc2)c1COc1ccc(N2CCN3c4ncccc4NC(=O)[C@@H]3C2)nn1 [Example 194, (S)-8-(6-((1-(4-(Difluoromethyl)phenyl)-4-methyl-1H-1,2,3-triazol-5-yl)methoxy)pyridazin-3-yl)-7,8,9,10-tetrahydro-5H-pyrazino[1,2-a]pyrido[3,2-e]pyrazin-6(6aH)-one]
0.54 nM | Cc1nnn(-c2ccc(C(F)F)cc2)c1COc1ccc(N2CCN3c4nc(F)ccc4NC(=O)[C@@H]3C2)nn1 [Example 195, (S)-8-(6-((1-(4-(Difluoromethyl)phenyl)-4-methyl-1H-1,2,3-triazol-5-yl)methoxy)pyridazin-3-yl)-2-fluoro-7,8,9,10-tetrahydro-5H-pyrazino[1,2-a]pyrido[3,2-e]pyrazin-6(6aH)-one]
2.1 nM | Cc1nnn(-c2ccc(C(F)F)cc2)c1COc1ccc(N2CCN3CC(c4cccc(Cl)c4)NC(=O)[C@@H]3C2)nn1 (stereo partly drawn) [Example 205, (9aS)-3-(3-Chlorophenyl)-8-(6-((1-(4-(difluoromethyl)phenyl)-4-methyl-1H-1,2,3-triazol-5-yl)methoxy)pyridazin-3-yl)hexahydro-2H-pyrazino[1,2-a]pyrazin-1(6H)-one]
0.64 nM | Cc1nnn(-c2ccc(C(F)F)cc2)c1COc1nnc(N2CCN3CCNC(=O)[C@@H]3C2)c2ncccc12 [Example 206, (S)-8-(5-((1-(4-(Difluoromethyl)phenyl)-4-methyl-1H-1,2,3-triazol-5-yl)methoxy)pyrido[2,3-d]pyridazin-8-yl)hexahydro-2H-pyrazino[1,2-a]pyrazin-1(6H)-one]
54.1 nM | Cc1nnn(-c2ccc(C(F)F)cc2)c1COc1ccnc(N2CCNC(=O)C2)n1 [Example 213, 4-(4-((1-(4-(Difluoromethyl)phenyl)-4-methyl-1H-1,2,3-triazol-5-yl)methoxy)pyrimidin-2-yl)piperazin-2-one]
49.2 nM | O=C1CN(c2ccc(OCc3cnnn3-c3ccc(Cl)cc3)nn2)CCN1 [Example 214, 4-(6-((1-(4-Chlorophenyl)-1H-1,2,3-triazol-5-yl)methoxy)pyridazin-3-yl)piperazin-2-one]
36.1 nM | Cc1nnn(-c2ccc(C(F)F)cc2)c1COc1ccc(N2CC(C(C)C)N3CCNC[C@H]3C2=O)nn1 (stereo partly shown) [Example 215]
